From PubChem BioAssay (NCI) come the findings set out here.

Several values for one entry are separate records, joined by “and”; a condition that tells them apart may be missing. Equal entries are not always repeated.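 Step 1: Grow cells in 96-well plates. Step 2: Expose to compound for 48 hours at 5 concentrations. Step 3: Interpolate endpoints linearly; if unreached, use highest concentration. At the GI50, growth is halved. TGI: concentration producing complete growth inhibition.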 Bounds are passed on as bounds.

Test systems include NCI-H460 lung; SW-620 colon; TK-10 renal; K-562 leukemia; MOLT-4 leukemia; U251 CNS; SF-268 CNS; RXF 393 renal; DU-145 prostate; HOP-92 NSCLC.
Common to all, as to assay: growth of human tumour cells (NCI), 48 h

Regarding `COc1cccc(-c2nn(-c3ccccc3)cc2-c2ccnc(NCCNS(=O)(=O)c3ccc(Cl)cc3)c2)c1`, the GI50 in the experiment with NCI-H460 lung is 5.15 µM; in the experiment with SW-620 colon, 5.44 µM; in the experiment on TK-10 renal, 4.75 µM; in the experiment on K-562 leukemia, 3.73 µM; with MOLT-4 leukemia, 2.56 µM; with U251 CNS, 5.89 µM. Besides, the GI50 was 5.49 µM in the experiment on SF-268 CNS, 5.03 µM with RXF 393 renal, 7.55 µM in the experiment with DU-145 prostate and 2.46 µM in the experiment with HOP-92 NSCLC. In addition, the TGI is over 100 µM in the experiment with NCI-H460 lung; over 100 µM in the experiment with SW-620 colon; over 100 µM in the experiment on TK-10 renal; over 100 µM in the experiment on K-562 leukemia; 9 µM with MOLT-4 leukemia; over 100 µM in the experiment with U251 CNS. The TGI in the experiment on SF-268 CNS was over 100 µM; with RXF 393 renal it was over 100 µM; in the experiment with DU-145 prostate, over 100 µM; with HOP-92 NSCLC, 9.48 µM.

Consider `O=[N+]([O-])c1cnc(Sc2ccncn2)c([N+](=O)[O-])c1`, for which the GI50 with NCI-H460 lung is 23 µM; in the experiment on SW-620 colon, 2.19 µM; in the experiment with TK-10 renal, 1.74 µM; in the experiment with K-562 leukemia, 2.85 µM; with MOLT-4 leukemia, 3.24 µM; in the experiment on U251 CNS it was 29.4 µM. For the same compound, the GI50 with SF-268 CNS is 16 µM; in the experiment with RXF 393 renal, 1.97 µM; with DU-145 prostate, 16.7 µM; in the experiment on HOP-92 NSCLC, 2.51 µM. In addition, the TGI was 49.4 µM in the experiment with NCI-H460 lung; 4.45 µM with SW-620 colon; 3.21 µM in the experiment on TK-10 renal; 29.9 µM in the experiment with K-562 leukemia; 33.1 µM in the experiment on MOLT-4 leukemia; over 100 µM in the experiment on U251 CNS. Also, the TGI in the experiment on SF-268 CNS was 30.7 µM; with RXF 393 renal, 4.17 µM; in the experiment on DU-145 prostate it was 30.5 µM; in the experiment with HOP-92 NSCLC, 6.53 µM.

For `CC(C)C[C@@H](NC(=O)[C@@H](Cc1ccccc1)NC(=O)c1cnccn1)B1O[C@H]2[C@H](O)[C@@H](C(=O)NCCCC[C@@H]3NC(=O)[C@@H](Cc4ccccc4)NC(=O)[C@H](CC(=O)O)NC(=O)CNC(=O)[C@H](CCCN=C(N)N)NC3=O)O[C@@H](CN)[C@H]2O1`, the GI50 in the experiment on NCI-H460 lung is 0.0344 µM and 0.0179 µM; with SW-620 colon, 0.00454 µM and 0.005 µM; in the experiment on TK-10 renal it was 0.00308 µM and 0.005 µM; with K-562 leukemia it was 0.0088 µM and 0.005 µM; in the experiment on MOLT-4 leukemia, 0.00274 µM; in the experiment with U251 CNS, 0.0328 µM and 0.00592 µM. Besides, the GI50 in the experiment with SF-268 CNS is 0.00877 µM and 0.00535 µM; in the experiment with RXF 393 renal, 0.00345 µM and < 0.005 µM; in the experiment with DU-145 prostate, 0.00662 µM and 0.005 µM; in the experiment with HOP-92 NSCLC, 0.0108 µM and 0.00548 µM. For the same compound, the TGI in the experiment with NCI-H460 lung is 0.135 µM and 0.185 µM; in the experiment with SW-620 colon it was 0.239 µM and 0.652 µM; in the experiment on TK-10 renal, 0.0249 µM and 0.00851 µM; in the experiment with MOLT-4 leukemia, 0.00931 µM; in the experiment on U251 CNS it was 0.218 µM and 0.0431 µM; with SF-268 CNS, 0.0387 µM and 0.0574 µM. For the same compound, the TGI is 0.0135 µM and < 0.005 µM with RXF 393 renal; 5.36 µM with DU-145 prostate; 0.0565 µM and 0.0236 µM in the experiment on HOP-92 NSCLC.

For the compound `COc1ccc(C(=O)/C=C/c2ccc(O)c(O)c2F)c(OC)c1`, the TGI with NCI-H460 lung is 13 µM and 15.9 µM; in the experiment with SW-620 colon, 75 µM and 25.5 µM; with TK-10 renal, 28.5 µM and 23.4 µM; with K-562 leukemia it was 75 µM and 18.1 µM; in the experiment with MOLT-4 leukemia it was 75 µM and 11.6 µM; with U251 CNS, 23.1 µM and 17.9 µM. The TGI in the experiment with SF-268 CNS is 75 µM and 59.1 µM; in the experiment on RXF 393 renal it was 26.4 µM and 32.1 µM; with DU-145 prostate, 16.2 µM and 19 µM; in the experiment with HOP-92 NSCLC it was 75 µM and > 100 µM. For the same compound, the GI50 with TK-10 renal is 7.64 µM; in the experiment on MOLT-4 leukemia, 0.259 µM; in the experiment on U251 CNS, 4.12 µM; in the experiment on SF-268 CNS it was 8.75 µM; in the experiment on RXF 393 renal, 11.6 µM; with DU-145 prostate it was 5.38 µM. Besides, the GI50 in the experiment with HOP-92 NSCLC is 36 µM.

As to `OCCN(CCO)N=Nc1ccc(-c2nc3ccccc3[nH]2)cc1`, the GI50 with NCI-H460 lung is 13.7 µM; in the experiment on SW-620 colon it was 18.9 µM; in the experiment on TK-10 renal, 36.1 µM; in the experiment with K-562 leukemia, 24 µM; with MOLT-4 leukemia, 14.4 µM; with U251 CNS, 17.6 µM. Besides, the GI50 in the experiment on SF-268 CNS was 3.31 µM; in the experiment with RXF 393 renal it was 27.9 µM; in the experiment on DU-145 prostate, 20.9 µM; with HOP-92 NSCLC, 3.02 µM. In addition, the TGI in the experiment with NCI-H460 lung is 29.5 µM; in the experiment on SW-620 colon, 38.4 µM; in the experiment with TK-10 renal, over 100 µM; with K-562 leukemia, over 100 µM; with MOLT-4 leukemia, 38.5 µM; with U251 CNS, 37.4 µM. The TGI with SF-268 CNS came to 40.5 µM; in the experiment with RXF 393 renal, 65 µM; with DU-145 prostate it was 46.6 µM; in the experiment with HOP-92 NSCLC, 23.8 µM.

On to `CN(C)CCCCN1CCc2c(n(C)c3ccccc23)C1=O`, for which the GI50 is 54.6 µM and 24.2 µM in the experiment on NCI-H460 lung; > 100 µM and 38.8 µM with TK-10 renal; 72.4 µM and 34.1 µM in the experiment with U251 CNS. Besides, the TGI is > 87.1 µM and 49.8 µM with NCI-H460 lung; > 81.6 µM and 63.9 µM in the experiment on SW-620 colon; over 100 µM in the experiment on TK-10 renal; 51.9 µM and > 59.4 µM with K-562 leukemia; over 87.6 µM in the experiment with MOLT-4 leukemia; 99.5 µM and > 60.1 µM in the experiment with U251 CNS. Further, the TGI with SF-268 CNS is > 76.3 µM and 57.6 µM; in the experiment with RXF 393 renal it was 84.7 µM and > 90.5 µM; with DU-145 prostate, over 100 µM; in the experiment on HOP-92 NSCLC, 81.2 µM and > 90.7 µM.

As for `Cn1ccnc1C(=O)/C=C/c1ccc(CC(=O)Nc2ccc(Cl)cc2)cc1`, the GI50 in the experiment on NCI-H460 lung is 1.58 µM; in the experiment on SW-620 colon, 1.25 µM; in the experiment on TK-10 renal it was 12.3 µM; with MOLT-4 leukemia it was 1.74 µM; with U251 CNS, 1.1 µM; in the experiment on SF-268 CNS it was 1.24 µM. Further, the results for the GI50 in the experiment on RXF 393 renal, in the experiment on DU-145 prostate and with HOP-92 NSCLC were 2.97 µM, 1.42 µM and over 25 µM, respectively. The TGI in the experiment on NCI-H460 lung, in the experiment on SW-620 colon, with TK-10 renal, with MOLT-4 leukemia, in the experiment with U251 CNS and in the experiment with SF-268 CNS was over 25 µM each time. For the same compound, the TGI in the experiment with RXF 393 renal, with DU-145 prostate and with HOP-92 NSCLC was over 25 µM throughout.

On to `Cc1ccc(C)c(NC(=O)C(=O)C2C(=O)C3=C(CC2(C)C)Nc2ccccc2S3)c1` (stereo unspecified), for which the TGI with NCI-H460 lung, with SW-620 colon, with TK-10 renal, in the experiment with MOLT-4 leukemia, in the experiment on U251 CNS and in the experiment on SF-268 CNS was over 100 µM in each case. Also, the TGI in the experiment with RXF 393 renal, in the experiment with DU-145 prostate and with HOP-92 NSCLC was over 100 µM throughout.
